One may read the IC50 as the point on the concentration scale where inhibition reaches its midpoint. As usually defined, the AC50 is the concentration giving half of the maximal activity seen. A word on the EC50: it is the concentration at which the effect is half-maximal.

The values below come from ChEMBL document CHEMBL1201862, “PubChem BioAssay data set” (2004).

SMILES strings stand for the structures. Calls of active or inactive are those of the source.

Assay [1] addresses Glucose-6-phosphate 1-dehydrogenase (Homo sapiens, UniProt P11413). Briefly: inhibition of Homo sapiens G6PD, dose series – biochemical, fluorescence, selectivity assay for P. falciparum G6PD inhibitor project, dose response (AID 504792). Type of assay: functional.
The target in another assay is T1, Cysteine protease ATG4B (Homo sapiens, UniProt Q9Y4P1).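 Also: Fluorescence-based dose-response confirmation assay measuring inhibition of ATG4B activity.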
T1 sequence (Q9Y4P1 whole entry): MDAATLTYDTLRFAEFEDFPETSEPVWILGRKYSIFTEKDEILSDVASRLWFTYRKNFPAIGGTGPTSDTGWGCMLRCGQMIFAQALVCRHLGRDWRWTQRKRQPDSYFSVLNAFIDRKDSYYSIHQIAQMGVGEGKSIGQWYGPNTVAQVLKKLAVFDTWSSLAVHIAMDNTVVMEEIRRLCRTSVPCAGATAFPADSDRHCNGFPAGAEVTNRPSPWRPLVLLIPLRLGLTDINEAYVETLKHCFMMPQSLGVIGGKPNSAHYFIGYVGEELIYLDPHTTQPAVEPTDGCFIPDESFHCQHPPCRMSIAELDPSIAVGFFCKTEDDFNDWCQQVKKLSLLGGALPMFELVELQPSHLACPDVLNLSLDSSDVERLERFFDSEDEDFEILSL
In kind it is functional.

The next assay deals with Phospholipase A2 (Homo sapiens, UniProt P04054). Type of assay: functional.
For another assay, the system named is HEK293. Nature of the assay: EBV LMP1 TES2 canonical NF-kB signalling blockers – cell-based, HEK293, luciferase, cherry-pick, dose response (AID 588343). Type of assay: functional. The conditions noted are these: Homo sapiens.
In another assay the test system is Escherichia coli. Briefly: microbe, parasite or virus in culture.
Assay [2] addresses T2, Replicative DNA helicase DnaB (Mycobacterium tuberculosis, UniProt P9WMR3).
T2 sequence (P9WMR3 whole entry): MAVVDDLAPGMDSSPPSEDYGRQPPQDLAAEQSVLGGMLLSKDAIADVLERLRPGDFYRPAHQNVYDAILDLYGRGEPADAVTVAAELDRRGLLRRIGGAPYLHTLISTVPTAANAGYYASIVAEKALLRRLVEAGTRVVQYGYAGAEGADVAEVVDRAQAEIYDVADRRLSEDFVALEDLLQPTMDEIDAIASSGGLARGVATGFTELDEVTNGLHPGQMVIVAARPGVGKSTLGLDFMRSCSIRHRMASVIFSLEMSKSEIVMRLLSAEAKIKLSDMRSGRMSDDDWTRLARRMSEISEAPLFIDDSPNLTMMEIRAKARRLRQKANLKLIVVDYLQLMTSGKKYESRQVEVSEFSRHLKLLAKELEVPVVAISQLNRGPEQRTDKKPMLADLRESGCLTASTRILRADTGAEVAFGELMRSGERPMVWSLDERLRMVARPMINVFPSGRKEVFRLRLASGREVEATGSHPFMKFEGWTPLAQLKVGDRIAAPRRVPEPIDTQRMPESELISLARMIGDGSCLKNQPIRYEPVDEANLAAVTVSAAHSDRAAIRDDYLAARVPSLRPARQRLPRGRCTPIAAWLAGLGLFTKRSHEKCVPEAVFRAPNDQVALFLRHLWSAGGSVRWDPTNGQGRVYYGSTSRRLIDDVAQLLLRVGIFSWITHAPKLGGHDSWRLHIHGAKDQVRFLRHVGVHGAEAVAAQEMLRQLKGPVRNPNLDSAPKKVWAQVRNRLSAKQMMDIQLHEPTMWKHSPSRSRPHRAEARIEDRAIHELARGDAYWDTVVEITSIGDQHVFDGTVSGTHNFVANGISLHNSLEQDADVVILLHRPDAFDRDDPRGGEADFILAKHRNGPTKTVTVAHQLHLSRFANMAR
Nature of the assay: DnaB intein splicing inhibitors, dose response, biochemical, cell-free fluorescence (AID 449749). In kind it is functional.

The target in a further assay is T3, Protein RecA (Mycobacterium tuberculosis, UniProt P9WHJ3).
T3 sequence (P9WHJ3 whole entry): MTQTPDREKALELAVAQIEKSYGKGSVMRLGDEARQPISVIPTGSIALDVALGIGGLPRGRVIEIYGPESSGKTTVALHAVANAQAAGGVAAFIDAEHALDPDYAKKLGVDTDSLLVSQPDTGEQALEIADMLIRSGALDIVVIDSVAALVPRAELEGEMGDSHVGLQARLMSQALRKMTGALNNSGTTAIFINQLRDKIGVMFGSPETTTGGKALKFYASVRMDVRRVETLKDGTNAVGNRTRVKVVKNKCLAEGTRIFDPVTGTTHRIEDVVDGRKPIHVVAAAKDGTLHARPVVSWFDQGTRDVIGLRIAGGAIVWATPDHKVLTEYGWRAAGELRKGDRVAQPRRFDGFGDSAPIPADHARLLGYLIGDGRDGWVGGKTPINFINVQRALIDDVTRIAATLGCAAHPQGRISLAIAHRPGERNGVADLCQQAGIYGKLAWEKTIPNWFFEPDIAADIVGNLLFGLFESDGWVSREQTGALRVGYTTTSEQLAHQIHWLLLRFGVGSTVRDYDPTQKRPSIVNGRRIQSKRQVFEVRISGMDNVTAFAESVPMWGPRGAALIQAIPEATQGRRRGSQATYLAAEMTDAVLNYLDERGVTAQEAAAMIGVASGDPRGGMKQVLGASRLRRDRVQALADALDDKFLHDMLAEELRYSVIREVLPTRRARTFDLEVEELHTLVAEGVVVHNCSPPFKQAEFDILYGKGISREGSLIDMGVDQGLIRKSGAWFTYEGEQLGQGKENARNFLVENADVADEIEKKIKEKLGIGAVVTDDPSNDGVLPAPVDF
Nature of the assay: Fluorescence Cell-Free Homogeneous Dose Retest to Identify Inhibitors of RecA-Intein Splicing Activity. [Related pubchem assays (depositor defined):AID2097, AID2223, AID489010, AID492950]. In kind it is functional.

Assay [3] addresses T4, RNA-binding protein pos-1 (Caenorhabditis elegans, UniProt G5EF15).
T4 sequence (G5EF15 whole entry): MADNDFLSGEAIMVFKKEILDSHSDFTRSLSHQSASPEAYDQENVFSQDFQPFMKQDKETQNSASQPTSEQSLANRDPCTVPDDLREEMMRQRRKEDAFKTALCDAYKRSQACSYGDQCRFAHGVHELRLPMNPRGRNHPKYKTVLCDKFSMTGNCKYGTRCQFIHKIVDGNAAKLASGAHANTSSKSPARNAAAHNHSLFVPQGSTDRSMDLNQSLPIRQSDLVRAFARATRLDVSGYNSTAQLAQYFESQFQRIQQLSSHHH
Briefly: disruptors of C. elegans POS-1 RNA interaction – biochemical, fluorescence polarization, dose response (AID 1964).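 Also: purified POS-1 fused to maltose binding protein made in E. coli; potency of compounds blocking POS-1 binding to fluorescent RNA.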 In general terms: Fluorescence polarisation rises when a labelled molecule tumbles more slowly, as on binding a larger partner.

Assay [4] addresses T5, Zinc finger protein mex-5 (Caenorhabditis elegans, UniProt Q9XUB2).
T5 sequence (Q9XUB2 whole entry): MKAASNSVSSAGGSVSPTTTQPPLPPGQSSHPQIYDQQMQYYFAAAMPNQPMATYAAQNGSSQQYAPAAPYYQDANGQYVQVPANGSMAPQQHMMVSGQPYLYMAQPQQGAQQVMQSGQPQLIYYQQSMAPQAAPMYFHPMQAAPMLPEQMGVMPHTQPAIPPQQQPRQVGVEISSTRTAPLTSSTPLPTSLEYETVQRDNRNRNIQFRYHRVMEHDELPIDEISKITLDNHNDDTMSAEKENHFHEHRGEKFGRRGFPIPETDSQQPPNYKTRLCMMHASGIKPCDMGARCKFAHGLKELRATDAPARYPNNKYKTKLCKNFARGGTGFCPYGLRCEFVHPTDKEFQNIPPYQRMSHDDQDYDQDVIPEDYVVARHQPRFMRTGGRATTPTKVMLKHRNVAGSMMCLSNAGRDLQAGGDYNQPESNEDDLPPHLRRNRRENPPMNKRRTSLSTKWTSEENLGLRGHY
Nature of the assay: potency of MEX-5 RNA-binding blockers – biochemical, C. elegans, fluorescence polarization, dose response (AID 1960).

Assay [5] addresses T6, Carboxy-terminal domain RNA polymerase II polypeptide A small phosphatase 1 (Homo sapiens, UniProt Q9GZU7).
T6 sequence (Q9GZU7 whole entry): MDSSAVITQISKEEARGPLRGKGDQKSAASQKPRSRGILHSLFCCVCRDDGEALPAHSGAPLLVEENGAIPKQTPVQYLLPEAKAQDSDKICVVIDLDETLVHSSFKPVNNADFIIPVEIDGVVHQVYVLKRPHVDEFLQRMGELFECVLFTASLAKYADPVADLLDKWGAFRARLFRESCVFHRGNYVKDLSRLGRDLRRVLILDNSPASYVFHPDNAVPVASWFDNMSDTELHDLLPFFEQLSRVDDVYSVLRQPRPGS
Briefly: CTDSP1 inhibitors, concentration-response, biochemical, absorbance readout, ultra-high-throughput screen actives (AID 540297). Type of assay: functional.

In assay [6] the target is T7, Histone-lysine N-methyltransferase NSD2 (Homo sapiens, UniProt O96028).
T7 sequence (O96028 whole entry): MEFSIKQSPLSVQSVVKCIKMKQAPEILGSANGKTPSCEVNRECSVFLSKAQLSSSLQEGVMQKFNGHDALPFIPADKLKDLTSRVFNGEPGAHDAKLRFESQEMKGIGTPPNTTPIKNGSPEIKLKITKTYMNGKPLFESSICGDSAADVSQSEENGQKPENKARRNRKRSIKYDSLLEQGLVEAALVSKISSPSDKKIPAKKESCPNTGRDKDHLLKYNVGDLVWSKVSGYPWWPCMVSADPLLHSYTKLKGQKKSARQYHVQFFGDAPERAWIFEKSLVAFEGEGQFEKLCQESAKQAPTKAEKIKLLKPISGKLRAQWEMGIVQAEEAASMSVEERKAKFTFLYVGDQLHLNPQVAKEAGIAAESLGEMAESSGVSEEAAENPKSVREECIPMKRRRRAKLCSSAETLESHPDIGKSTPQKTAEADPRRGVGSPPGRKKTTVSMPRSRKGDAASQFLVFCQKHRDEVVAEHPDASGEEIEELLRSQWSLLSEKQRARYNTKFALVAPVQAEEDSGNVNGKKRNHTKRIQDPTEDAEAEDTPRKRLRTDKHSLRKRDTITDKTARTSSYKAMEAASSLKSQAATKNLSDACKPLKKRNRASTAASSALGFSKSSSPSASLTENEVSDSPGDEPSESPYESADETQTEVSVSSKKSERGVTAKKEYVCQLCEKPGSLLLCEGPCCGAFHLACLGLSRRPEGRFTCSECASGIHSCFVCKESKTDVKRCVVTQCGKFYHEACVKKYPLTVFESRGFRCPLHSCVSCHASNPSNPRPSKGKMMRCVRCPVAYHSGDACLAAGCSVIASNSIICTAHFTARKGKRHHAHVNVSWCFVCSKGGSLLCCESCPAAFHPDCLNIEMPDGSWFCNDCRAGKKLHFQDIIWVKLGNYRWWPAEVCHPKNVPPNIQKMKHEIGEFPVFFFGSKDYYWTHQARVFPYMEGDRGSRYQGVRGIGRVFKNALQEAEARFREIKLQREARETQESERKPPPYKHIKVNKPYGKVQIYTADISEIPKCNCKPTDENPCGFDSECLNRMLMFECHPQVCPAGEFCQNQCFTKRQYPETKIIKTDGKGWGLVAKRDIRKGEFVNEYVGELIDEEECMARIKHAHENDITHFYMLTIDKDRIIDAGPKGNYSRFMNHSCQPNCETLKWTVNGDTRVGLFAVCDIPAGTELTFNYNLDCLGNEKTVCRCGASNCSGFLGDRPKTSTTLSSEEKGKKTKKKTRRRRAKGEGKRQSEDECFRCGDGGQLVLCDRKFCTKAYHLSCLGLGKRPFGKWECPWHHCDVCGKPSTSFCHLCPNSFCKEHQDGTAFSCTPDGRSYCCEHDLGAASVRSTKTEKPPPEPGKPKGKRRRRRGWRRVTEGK
Type of assay: biochemical.

Chain of Glucose-6-phosphate 1-dehydrogenase (P11413 whole entry): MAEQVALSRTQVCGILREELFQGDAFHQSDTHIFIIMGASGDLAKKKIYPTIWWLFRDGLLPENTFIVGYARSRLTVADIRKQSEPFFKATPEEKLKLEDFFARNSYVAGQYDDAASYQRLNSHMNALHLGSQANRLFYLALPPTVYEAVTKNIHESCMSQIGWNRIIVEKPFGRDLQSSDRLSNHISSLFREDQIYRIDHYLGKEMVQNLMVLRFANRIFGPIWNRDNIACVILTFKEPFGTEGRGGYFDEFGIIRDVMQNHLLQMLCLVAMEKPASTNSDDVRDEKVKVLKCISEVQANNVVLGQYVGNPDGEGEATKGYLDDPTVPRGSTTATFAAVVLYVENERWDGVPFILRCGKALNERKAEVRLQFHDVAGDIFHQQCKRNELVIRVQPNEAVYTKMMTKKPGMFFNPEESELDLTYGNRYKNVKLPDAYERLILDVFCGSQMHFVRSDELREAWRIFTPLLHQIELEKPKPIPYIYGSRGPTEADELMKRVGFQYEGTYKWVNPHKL
Chain of Phospholipase A2 (P04054 whole entry): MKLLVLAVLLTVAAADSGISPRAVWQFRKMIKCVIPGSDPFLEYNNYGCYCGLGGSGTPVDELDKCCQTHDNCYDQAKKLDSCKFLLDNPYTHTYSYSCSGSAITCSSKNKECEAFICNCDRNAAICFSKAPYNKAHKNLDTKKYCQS

As to `Cc1cc(O)nc(N/N=C/c2c(C)nn(-c3ccccc3)c2Cl)n1`, the IC50 in assay [1] was > 80 µM (inactive).

Take `COc1cc(OC)cc(-c2nc3ccccc3c(=O)n2OC(=O)c2ccccc2C)c1`: the IC50 on Cysteine protease ATG4B is 21.4 µM (inactive); at Phospholipase A2, 7.51 µM (active).

Take `COc1ccc(-n2c(C)c([N+](=O)[O-])c3ccc(O)c(CN(C)C)c32)cc1`: the AC50 in the assay on HEK293 is 2.53 µM (active).

For `O=C(NCc1ccccc1)c1ccc(Br)o1`, the AC50 in the assay with Escherichia coli is 42.9 µM (active).

For the compound `O=C(CSc1ncnc2c1nnn2Cc1ccccc1F)NCC1CCCO1` (centres undefined), the AC50 in assay [2] was 15 µM (active); with Escherichia coli it was 58.3 µM (active). Besides, the EC50 on Protein RecA is 16.5 µM (active).

Turning to `CCOc1cccc(=O)c2c(C)n(-c3ccc(C(=O)O)cc3)c(C)c12`, the results for the EC50 in assay [3] and in [4] were 41.3 µM (active) and 29.6 µM (active), respectively. Further, the IC50 in [5] is 4.54 µM (active). In addition, the AC50 in assay [6] was 17.2 µM (active); in the assay with Escherichia coli, > 150 µM (inactive).

As to `O=C(NCc1ccccc1)c1cccc(COc2ccc3c(c2)CCC3)c1`, the AC50 in the assay with HEK293 was 4.83 µM (active).
